Consider one compound from patent US20240277666A1, “Combination Treatments for Cancer Patients and Methods for Identifying Same” (Scandion Oncology A/S, priority 2021, published 2024).

Usually IC50 stands for the concentration needed to halve the response being measured.

For assay [1], the target named is T1, UGT1A1 (Homo sapiens, UniProt P22309).
T1 sequence (P22309 26-533): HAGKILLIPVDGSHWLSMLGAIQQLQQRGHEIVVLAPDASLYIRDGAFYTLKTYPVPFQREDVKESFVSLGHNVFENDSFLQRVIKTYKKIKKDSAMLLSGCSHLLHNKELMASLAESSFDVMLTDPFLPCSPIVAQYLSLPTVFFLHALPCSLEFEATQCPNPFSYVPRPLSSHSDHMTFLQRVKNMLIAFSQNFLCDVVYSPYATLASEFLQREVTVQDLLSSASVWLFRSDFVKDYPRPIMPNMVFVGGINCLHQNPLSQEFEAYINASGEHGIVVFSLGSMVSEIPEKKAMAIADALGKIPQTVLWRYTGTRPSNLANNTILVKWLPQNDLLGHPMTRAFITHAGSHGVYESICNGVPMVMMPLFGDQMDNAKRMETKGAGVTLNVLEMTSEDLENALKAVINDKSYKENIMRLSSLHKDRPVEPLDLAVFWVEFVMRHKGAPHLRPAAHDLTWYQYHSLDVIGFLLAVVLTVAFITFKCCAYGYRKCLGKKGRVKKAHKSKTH
In words: Clinical study of SCO-101 with FOLFIRI: serum bilirubin / bilirubin index as surrogate of UGT1A1 activity. Type of assay: in vivo. The arrangement: from tissue; host or cells: patients in vivo (enzyme primarily in the liver). Conditions: for mean bilirubin index score (day 12 / day 7 bilirubin serum concentration): cohort 1 (150 mg SCO-101), cycle 1; for highest bilirubin index score / lowest bilirubin index score: cohort 1, cycle 1. The method, then: The term “bilirubin index” as used herein or “bilirubin index score” which are used interchangeably, refer to a patient's rate of bilirubin normalization subsequent to administration of an UGT1A1 inhibitor to the patient. Herein, the bilirubin index is determined subsequent to administration of an UGT1A1 inhibitor to the patient for a number of consecutive days, such as 1, 2, 3, 4, 5, or 6, preferably 6 days. In some embodiments, based on 6 consecutive days of administration with an UGT1A1 inhibitor, the bilirubin index can be determined as the bilirubin serum concentration (unconjugated or total bilirubin) on day 12 divided with the bilirubin serum concentration on day 7 and thus is an indicator of how much the patients' UGT1A1 activity has normalized following cessation of treatment with the UGT1A1 inhibitor, such as SCO-101, and can be determined using bilirubin as a surrogate marker. Based on 6 consecutive days of administration with an UGT1A1 inhibitor, the bilirubin index is determined as the bilirubin serum concentration (unconjugated or total bilirubin) on day 12 divided with the bilirubin serum concentration on day 7 and thus is an indicator of how much the patients' UGT1A1 activity has normalized following cessation of SCO-101 treatment, and can be determined using bilirubin as a surrogate marker. In some embodiments, the bilirubin index is determined by comparison on bilirubin serum concentrations obtained from other days than day 7 and day 12. The bilirubin index is also referred to herein as the CT2/CT1 ratio, wherein CT1 is the plasma concentration of unconjugated bilirubin in the patient at a time point T1, whereas CT2 is the plasma concentration of unconjugated bilirubin in the patient at a time point T2 which is after discontinuing administration of the UGT1A1 inhibitor.
Bilirubin: Blood sampling for analysis of bilirubin (total, unconjugated and conjugated) were withdrawn at Screening (up to 4 weeks prior start of treatment), day 5, day 7 and day 12 in the first treatment cycle.
UGT1A1 is the primary enzyme responsible for conjugation of bilirubin and metabolism of Irinotecan's active metabolite SN-38.

The target in assay [2] is T1, UGT1A1. In words: in vitro UGT1A1 inhibition assay. Type of assay: biochemical. The conditions noted are these: read-out: IC50 towards UGT1A1. From the text:
The term “UGT1A1 inhibitor” as used herein refers to a molecule which is capable of binding to the enzyme uridine diphosphate (UDP)-glycuronosyl transferase (UGT1A1) and decrease the enzymatic activity of UGT1A1. The UGT1A1 enzyme, primarily found in the liver, is responsible for the gluronidation of bilirubin, converting it from the toxic form of bilirubin (unconjugated bilirubin) to its nontoxic, water-soluble form (conjugated bilirubin). Whether or not a particular molecule is an UGT1A1 inhibitor can be determined by examining the molecule's IC50 in vitro in common UGT1A1 inhibition assays. […] In one embodiment, the IC50 is 5 μM or less, such as 4 μM or less, such as 3 μM or less, such as 2 μM or less, for example between 0.1 μM and 2.0 μM. […] In some embodiments, the UGT1A1 inhibitor of the present disclosure is a non-competitive UGT1A1 inhibitor. In some embodiments, the UGT1A1 inhibitor is a competitive UGT1A1 inhibitor. In one embodiment, the UGT1A1 inhibitor is also SRPK1 inhibitor and/or an ABCG2 inhibitor.

`O=C(Nc1cc(C(F)(F)F)cc(C(F)(F)F)c1)Nc1ccc(Br)cc1-c1nnn[nH]1` [SCO-101]: the “effect on unconjugated bilirubin serum concentration” value at UGT1A1 [1] (cancer patients, SCO-101 daily days 1-6) is “specific and dose dependent increase”. Moreover, at UGT1A1 [1] (cancer patients, blood bilirubin after last SCO-101 treatment), the “reversibility of UGT1A1 inhibition / bilirubin increase after discontinuation of SCO-101” value is “completely reversible”. For the same compound, at UGT1A1 [1] (cohort 1, cycle 1, day 12 / day 7), the “bilirubin index of patients with RAS mutation” value is “above 0.4”. On UGT1A1 [1] (six RAS mutated patients), the “mean bilirubin index score (day 12 / day 7 bilirubin serum concentration)” value is listed as 0.59, the “highest bilirubin index score” value was 0.76 and the “lowest bilirubin index score” value is 0.25. For the same compound, at UGT1A1 [1] (six RAS wild type patients), the “mean bilirubin index score (day 12 / day 7 bilirubin serum concentration)” value is reported as “approximately 0.15”, the “highest bilirubin index score” value was determined as 0.28 and the “lowest bilirubin index score” value is on record as 0.04. In addition, the IC50 at UGT1A1 [2] lay within 700 to 1900 nM.
